Tests used:
[1] = tested on: IL-2 production in normal human CD4+T cell; assay: IL-2 production inhibitory action evaluation test (anti-CD3/CD28 antibody stimulation, ELISA); type: cell-based; details: anti-CD3/CD28, 24 hours, read-out: IL-2 production inhibitory ratio (% of 1 μM)
Description: In order to evaluate an action of the present compound as a GR agonist, IL-2 and IL-4 production inhibitory actions in a normal human CD4^+T cell after stimulation by an anti-CD3/CD28 antibody were investigated. For the measurement of the IL-2 and IL-4 production amounts, the ELISA method (manufactured by R&D Systems, Cat No. D2050, HS400) was used, and a procedure was carried out according to the protocol attached thereto. Hereinafter, the specific method will be described.
Dynabeads (Registered Trademark) Human T-Activator CD3/CD28 (4×10^7 beads/mL) (Dynabeads) was used, and prepared according to the protocol attached thereto.
After the test compound was dissolved in dimethylsulfoxide, the solution was diluted with an RPMI medium to prepare 400 μM of a test compound solution. The solution was diluted with a 4% dimethylsulfoxide-containing RPMI medium to prepare 40 μM of a test compound solution.
Used cells: normal peripheral blood human CD4^+T cell (human CD4^+T cell) (Lonza)
• 1) Frozen human CD4^+T cells were thawed in a warm water bath at 37° C., and added to an RPMI medium (RPMI 1640 containing 10% FBS, 100 U/mL of Penicillin, and […] of Streptomycin). • 2) The above suspension was recovered and centrifuged at 900 rpm for 10 minutes to give a cell sediment. • 3) The cell sediment was suspended in an RPMI medium and the operation of 2) was carried out. • 4) The cell sediment was adjusted to 4×10^5 cells/mL with an RPMI medium. • 5) The above suspension was cultured in a CO2 incubator (temperature: 37° C., CO2 concentration: 5%) for 1 hour or longer. (Test Method and Measurement Method) • 1) The cultured human CD4^+T cells were recovered and the cells were seeded in 96-well flat bottom culture plates at each 8.0×10^4 cells/0.2 mL/well. • 2) The test compound solution was added with each 5 μL/well. • 3) The prepared Dynabeads were added with each 2 μL/well. • 4) The sample in which 4% dimethylsulfoxide-containing RPMI medium was added with each 5 μL/well in place of each test compound solution, and the RPMI medium was added with each 2 μL/well in place of the Dynabeads was made a negative control. • 5) The sample in which 4% dimethylsulfoxide-containing RPMI medium was added with each 5 μL/well in place of each test compound solution was made a positive control. • 6) After completion of 24 hours cultivation, the supernatant was recovered and the amounts of IL-2 and IL-4 released in the supernatant was measured by using an ELISA Kit. • 7) The IL-2 and IL-4 production inhibitory ratios were calculated according to the following calculation formula. (Calculation of IL-2 and IL-4 Production Inhibitory Ratios)
The IL-2 and IL-4 production inhibitory ratios (%) were calculated by the following formula, respectively. IL-2 or IL-4 production inhibitory ratio (%)=100×{1−(IL-2 or IL-4 production amounts of each test compound solution−average value of IL-2 or IL-4 production amount of negative control group)/(average value of IL-2 or IL-4 production amount of positive control group−average value of IL-2 or IL-4 production amount of negative control group)}(%) (Test Result and Consideration)

[2] = tested on: IL-6 production in human corneal epithelium cell line (HCE-T); assay: IL-6 production inhibitory action evaluation test (LPS stimulation, HTRF); type: cell-based; details: 4 hours; for Emax: 100 μM test compound solution 10 μL/well, DEX treated group = 100, read-out: IL-6 production inhibitory ratio (% DEX); for IC50: IL-6 production inhibition
Description: To evaluate the action of the present compounds as a GR agonist, IL-6 production inhibitory action in human corneal epithelial cell line after LPS stimulation was examined The IL-6 production was measured by using the HTRF method (Cat No. 62IL6PEB manufactured by Cisbio Bioassays, Inc.) according to the attached protocol. The specific method is described below.
LPS solution: After dissolving LPS in PBS(−), the resulting solution was diluted with a culture solution, whereby an LPS solution with a 1 μg/mL concentration was prepared.
After dissolving the test compound in dimethylsulfoxide, the solution was diluted with a 10% FBS-DMEM/Ham's F12 medium, whereby a 100 μM of the test compound solution was prepared. […] In addition, DEX was similarly dissolved, whereby a 100 μM concentration of the DEX solution was prepared, and an IL-6 production inhibitory ratio of DEX was measured, and used for calculation of Efficacy (% DEX).
Used cells: human corneal epithelium cell line (HCE-T) (RIKEN, Institute of Physical and Chemical Research)
The cells continued to subculture according to this method were used for the test. (Test Method and Measurement Method) • 1) The subcultured HCE-T was recovered and the cells were seeded at 2.0×10^4 cells/0.1 mL/well in a 96-well flat bottom culture plate. • 2) After culturing overnight, medium the medium was removed and each 80 μL/well of 10%
FBS-DMEM/Ham's F12 medium was added. • 3) Test compound solution was added with each 10 μL/well. • 4) LPS solution was added with each 10 μL/well. • 5) The sample to which 1% dimethylsulfoxide-containing 10% FBS-DMEM/Ham's F12 medium was added with each 10 μL/well in place of each test compound solution, and 10% FBS-DMEM/Ham's F12 medium was added in place of the LPS solution was made a negative control. • 6) The sample in which 1% dimethylsulfoxide-containing 10% FBS-DMEM/Ham's F12 medium was added with each 10 μL/well in place of each test compound solution was made a positive control. • 7) After completion of 4 hours cultivation, the supernatant was recovered and the amount of IL-6 released in the supernatant was measured by using an HTRF human IL-6 Kit. • 8) The IL-6 production inhibitory ratio was calculated according to the following calculation formula. (Calculation of IL-6 Production Inhibitory Ratio)
The IL-6 production inhibitory ratio (%) was calculated by the following formula. IL-6 production inhibitory ratio (%)=100×{1−(IL-6 produced amount of each test compound solution−average value of IL-6 produced amount of negative control group)/(average value of IL-6 produced amount of positive control group−average value of IL-6 produced amount of negative control group)}(%)
Further, the IL-6 production inhibitory ratio (Efficacy (% DEX)) when the DEX treated group was made 100 was calculated. Efficacy (% DEX)=100×{(average value of IL-6 production inhibitory ratio of each test compound solution)/(average value of IL-6 production inhibitory ratio of DEX treated group)}(%)
In addition, IC50 was calculated according to a conventional method. IDBS XLfit4 was used for the calculation.

Structure (SMILES) | inhibition at 1 µM [1] | Emax [2] | IC50 [2]
COc1cc(OC[C@@H](O)CCO)ccc1-c1ccc2c(c1COc1cc(F)ccc1C)N(C)C(=O)C(C)(C)N2 [Compound 2-1, (S)-7-[4-(2,4-dihydroxybutyl)oxy-2-methoxyphenyl]-8-(5-fluoro-2-methyl-phenoxymethyl)-1,3,3-trimethyl-3,4-dihydro-1H-quinoxalin-2-one] | 79% | 82% | 
COc1ccc(CO)cc1-c1ccc2c(c1COc1cc(F)ccc1C)N(C)C(=O)C(C)(C)N2 [Control compound B, 8-(5-fluoro-2-methylphenoxymethyl)-7-(5-hydroxymethyl-2-methoxyphenyl)-1,3,3-trimethyl-3,4-dihydro-1H-quinoxalin-2-one, reference compound] | 35% | 62% | 
COc1cc(OC[C@@H](O)CC#N)ccc1-c1ccc2c(c1COc1cc(F)ccc1C)N(C)C(=O)C(C)(C)N2 [Compound 5-2, (S)-7-[4-(3-cyano-2-hydroxypropyl)oxy-2-methoxyphenyl]-8-(5-fluoro-2-methyl-phenoxymethyl)-1,3,3-trimethyl-3,4-dihydro-1H-quinoxalin-2-one] |  | > 99% | 13 nM
COCOc1ccc(-c2ccc3c(c2COc2cc(F)ccc2C)N(C)C(=O)C(C)(C)N3)c(OC)c1 [Control compound F, 8-(5-fluoro-2-methylphenoxymethyl)-7-(2-methoxy-4-methoxymethoxyphenyl)-1,3,3-trimethyl-3,4-dihydro-1H-quinoxalin-2-one, reference compound] | < 0% | 62% | 
COc1cc(OC[C@H](C)OC(=O)CN(C)C)ccc1-c1ccc2c(c1COc1cc(F)ccc1C)N(C)C(=O)C(C)(C)N2 [Compound 11-1, (S)-7-[4-[2-(N,N-dimethylaminoacetoxy)propyl]oxy-2-methoxyphenyl]-8-(5-fluoro-2-methylphenoxymethyl)-1,3,3-trimethyl-3,4-dihydro-1H-quinoxalin-2-one] | 72% |  | 
COc1ccc(O)cc1-c1ccc2c(c1COc1cc(F)ccc1C)N(C)C(=O)C(C)(C)N2 [Control compound C, 8-(5-fluoro-2-methylphenoxymethyl)-7-(5-hydroxy-2-methoxyphenyl)-1,3,3-trimethyl-3,4-dihydro-1H-quinoxalin-2-one] | 26% | 71% | 93 nM
CCCC(=O)Oc1ccc(-c2ccc3c(c2COc2cc(F)ccc2C)N(C)C(=O)C(C)(C)N3)c(OC)c1 [Control compound D, 7-(4-butyryloxy-2-methoxyphenyl)-8-(5-fluoro-2-methylphenoxymethyl)-1,3,3-trimethyl-3,4-dihydro-1H-quinoxalin-2-one, reference compound] | < 0% | 69% | 
COc1ccc(-c2ccc3c(c2COc2cc(F)ccc2C)N(C)C(=O)C(C)(C)N3)c(OC)c1 [Control compound E, 7-(2,4-dimethoxyphenyl)-8-(5-fluoro-2-methyl-phenoxymethyl)-1,3,3-trimethyl-3,4-dihydro-1H-quinoxalin-2-one, reference compound] | < 0% | 10% | 
COc1cc(OC[C@H](C)O)ccc1-c1ccc2c(c1COc1cc(F)ccc1C)N(C)C(=O)C(C)(C)N2 [Compound 1-1, (S)-8-(5-fluoro-2-methylphenoxymethyl)-7-[4-(2-hydroxypropyl)oxy-2-methoxy-phenyl]-1,3,3-trimethyl-3,4-dihydro-1H-quinoxalin-2-one] | 73% | 86% | 

Source: patent US10189796B2, “[4-(1,3,3-trimethyl-2-oxo-3,4-dihydro-1H-quinoxalin-7-yl)phenoxy]ethyloxy compound or salt thereof” (SANTEN PHARMACEUTICAL CO., LTD., priority 2015, dated 2019)
